Results published in patent US10238670B2, “9-aminomethyl minocycline compounds and methods of use thereof in urinary tract infection (UTI) treatment” (Paratek Pharmaceuticals, Inc., priority 2016, dated 2019).
Values after ≈ are worked out from the molar mass of the structure shown. Read-outs that look alike come from different tables or passages of the source.

Key:
[1] = system: K. pneumoniae FQS; experiment: In vitro MIC, 2010 surveillance isolates; assay type: cell-based, Klebsiella pneumoniae; conditions: N=1561
[2] = system: E. coli FQR; experiment: In vitro MIC, 2010 surveillance isolates; assay type: cell-based, Escherichia coli; conditions: N=1264
[3] = system: P. mirabilis; experiment: In vitro MIC, 2010 surveillance isolates; assay type: cell-based; conditions: N=384
[4] = cited from earlier work
[5] = Phase 1b study, investigator's assessment of clinical response (EOT, PTE); assay type: in vivo, human
Experimental: b) Investigator's Assessment of Clinical Response Investigator's Assessment of Clinical Response at EOT
The EOT visit was conducted on Day 6. This evaluation was also conducted for any prematurely withdrawn subject. The following assessments were performed at the EOT visit: subject assessment of UTI signs and symptoms severity, urine culture and leukocyte esterase dipstick test or microscopic examination, physical examination, vital signs, 12-lead ECG, hematology and serum chemistry, serum pregnancy test (all subjects) and investigator's assessment of clinical response. Subjects, who discontinued study treatment before completing the study, and those who prematurely withdrew from the study for any reason, were scheduled for a visit as soon as possible, at which time all of the assessments listed for the EOT visit were performed.
It was determined whether the subject met the criteria of 1 of the following clinical outcomes: • Clinical Success: Resolution of signs and symptoms at the EOT visit and no use of additional antimicrobial therapy. • Clinical Failure: No apparent response to therapy, persistence of signs and symptoms of infection at the EOT visit, or use of additional antimicrobial therapy for the current infection. • Indeterminate: EOT visit not completed. Investigator's Assessment of Clinical Response at PTE
The PTE visit was conducted 5 to 9 days after the subject's last day of therapy. This evaluation was also conducted for any prematurely withdrawn subject. The following assessments were performed at the PTE visit: urine culture and leukocyte esterase dipstick test or microscopic examination, physical examination, vital signs, hematology, serum chemistry, serum pregnancy test (all subjects), and investigator's assessment of clinical response.
It was determined whether the subject met the criteria of 1 of the following clinical outcomes: • Clinical Success: Resolution of signs and symptoms at the PTE visit and no use of additional antimicrobial therapy. • Clinical Failure: No apparent response to therapy, persistence of signs and symptoms of infection, or reappearance of signs and symptoms at or before the PTE visit, or use of additional antimicrobial therapy for the current infection. • Indeterminate: PTE visit not completed.
Investigator's assessment of clinical response at the EOT and PTE visits with outcomes of Clinical Success, Clinical Failure or Indeterminate as defined above. Subjects who were a clinical failure at an earlier time point were considered a clinical failure at subsequent time points. The number and percentage of subjects with an Investigator's assessment of success, failure and indeterminate were presented for EOT and PTE visits by treatment group.

[6] = system: K. pneumoniae ESBL−; experiment: In vitro MIC, 2010 surveillance isolates; assay type: cell-based, Klebsiella pneumoniae; conditions: for Cumulative % Inhibition at MIC: N=1381
[7] = system: protein; conditions: cited from earlier work

**Q.** What does the source list for `CN(C)c1cc(CNCC(C)(C)C)c(O)c2c1C[C@H]1C[C@H]3[C@H](N(C)C)C(O)=C(C(N)=O)C(=O)[C@@]3(O)C(O)=C1C2=O` [Compound 1, 9-[(2,2-dimethyl-propylamino)-methyl]-minocycline]?
**A.** Cumulative % Inhibition at MIC ([1]; MIC 1 μg/ml): 29.6%; Cumulative % Inhibition at MIC ([1]; MIC 2 μg/ml): 79.3%; Cumulative % Inhibition at MIC ([1]; MIC 4 μg/ml): 92.5%; Cumulative % Inhibition at MIC ([1]; MIC 8 μg/ml): 95.9%; Cumulative % Inhibition at MIC ([1]; MIC 16 μg/ml): 98.5%; Cumulative % Inhibition at MIC ([1]; MIC ≤0.5 μg/ml, listed as head image P00011): 2.4%; Cumulative % Inhibition at MIC ([1]; MIC ≥32 μg/ml): 100%; Cumulative % Inhibition at MIC ([2]; MIC 1 μg/ml): 64.4%; Cumulative % Inhibition at MIC ([2]; MIC 2 μg/ml): 89.2%; Cumulative % Inhibition at MIC ([2]; MIC 4 μg/ml): 97.7%; Cumulative % Inhibition at MIC ([2]; MIC 8 μg/ml): 99.6%; Cumulative % Inhibition at MIC ([2]; MIC 16 μg/ml): 99.9%; Cumulative % Inhibition at MIC ([2]; MIC ≤0.5 μg/ml, listed as head image P00008): 29.6%; Cumulative % Inhibition at MIC ([2]; MIC ≥32 μg/ml): 100%; Cumulative % Inhibition at MIC ([3]; MIC 1 μg/ml): 0.3%; Cumulative % Inhibition at MIC ([3]; MIC 2 μg/ml): 1.3%; Cumulative % Inhibition at MIC ([3]; MIC 4 μg/ml): 5.7%; Cumulative % Inhibition at MIC ([3]; MIC 8 μg/ml): 22.9%; Cumulative % Inhibition at MIC ([3]; MIC 16 μg/ml): 56.8%; Cumulative % Inhibition at MIC ([3]; MIC ≤0.5 μg/ml): 0%; Cumulative % Inhibition at MIC ([3]; MIC ≥32 μg/ml): 100%; peak plasma concentration ([4]; 100 mg IV dose): 1.8 mg/L; peak plasma concentration ([4]; 300 mg oral dose): 0.6 mg/L; elimination half-life ([4]; phase 1 studies): approximately 17 hours; Reason for Clinical Failure: Persistence of signs and symptoms of infection at or before current visit ([5]; EOT, IV_PO300): 0 (0.0) n (%); Clinical Failure ([5]; EOT, IV_PO300 (N = 11)): 0 (0.0) n (%); Clinical Success ([5]; EOT, IV_PO300 (N = 11)): 10 (90.9) n (%); Indeterminate ([5]; EOT, IV_PO300 (N = 11)): 1 (9.1) n (%); Reason for Clinical Failure: Persistence of signs and symptoms of infection at or before current visit ([5]; EOT, PO300): 0 (0.0) n (%); Clinical Failure ([5]; EOT, PO300 (N = 10)): 0 (0.0) n (%); Clinical Success ([5]; EOT, PO300 (N = 10)): 10 (100.0) n (%); Indeterminate ([5]; EOT, PO300 (N = 10)): 0 (0.0) n (%); Reason for Clinical Failure: Persistence of signs and symptoms of infection at or before current visit ([5]; EOT, PO450): 1 (100.0) n (%); Clinical Failure ([5]; EOT, PO450 (N = 10)): 1 (10.0) n (%); Clinical Success ([5]; EOT, PO450 (N = 10)): 9 (90.0) n (%); Indeterminate ([5]; EOT, PO450 (N = 10)): 0 (0.0) n (%); Reason for Clinical Failure: Persistence of signs and symptoms of infection at or before current visit ([5]; PTE, IV_PO300): 0 (0.0) n (%); Reason for Clinical Failure: Use of additional systemic antimicrobial therapy for the current infection ([5]; PTE, IV_PO300): 0 (0.0) n (%); Clinical Failure ([5]; PTE, IV_PO300 (N = 11)): 0 (0.0) n (%); Clinical Success ([5]; PTE, IV_PO300 (N = 11)): 11 (100.0) n (%); Indeterminate ([5]; PTE, IV_PO300 (N = 11)): 0 (0.0) n (%); Reason for Clinical Failure: Persistence of signs and symptoms of infection at or before current visit ([5]; PTE, PO300): 2 (100.0) n (%); Reason for Clinical Failure: Use of additional systemic antimicrobial therapy for the current infection ([5]; PTE, PO300): 0 (0.0) n (%); Clinical Failure ([5]; PTE, PO300 (N = 10)): 2 (20.0) n (%); Clinical Success ([5]; PTE, PO300 (N = 10)): 7 (70.0) n (%); Indeterminate ([5]; PTE, PO300 (N = 10)): 0 (0.0) n (%); Reason for Clinical Failure: Persistence of signs and symptoms of infection at or before current visit ([5]; PTE, PO450): 1 (50.0) n (%); Reason for Clinical Failure: Use of additional systemic antimicrobial therapy for the current infection ([5]; PTE, PO450): 1 (50.0) n (%); Clinical Failure ([5]; PTE, PO450 (N = 10)): 2 (20.0) n (%); Clinical Success ([5]; PTE, PO450 (N = 10)): 8 (80.0) n (%); Indeterminate ([5]; PTE, PO450 (N = 10)): 0 (0.0) n (%); MIC90 ([6]; Asia/Pac, N=189): 4 µg/mL (≈ 7.19 µM); MIC90 ([6]; Europe, N=361): 4 µg/mL (≈ 7.19 µM); MIC90 ([6]; L. Amer, N=160): 4 µg/mL (≈ 7.19 µM); Cumulative % Inhibition at MIC ([6]; MIC 1 μg/ml): 29.1%; Cumulative % Inhibition at MIC ([6]; MIC 2 μg/ml): 79.9%; Cumulative % Inhibition at MIC ([6]; MIC 4 μg/ml): 92.1%; Cumulative % Inhibition at MIC ([6]; MIC 8 μg/ml): 95.6%; Cumulative % Inhibition at MIC ([6]; MIC 16 μg/ml): 98.3%; Cumulative % Inhibition at MIC ([6]; MIC ≤0.5 μg/ml, listed as head image P00009): 2.4%; Cumulative % Inhibition at MIC ([6]; MIC ≥32 μg/ml): 100%; MIC90 ([6]; N America, N=671): 4 µg/mL (≈ 7.19 µM)

**Q.** Which protein binding ([7]; 0.1 μg/mL, ultracentrifugation) does the source give for `CN(C)c1cc(NC(=O)CNC(C)(C)C)c(O)c2c1C[C@H]1C[C@H]3[C@H](N(C)C)C(O)=C(C(N)=O)C(=O)[C@@]3(O)C(O)=C1C2=O` [Tigecycline] here?
**A.** 73%

**Q.** What about the protein binding ([7]; 0.1 μg/mL, ultrafiltration) of the same molecule?
**A.** 71%

**Q.** What about the protein binding ([7]; 1.0 μg/mL, ultracentrifugation) of the same molecule?
**A.** 79%

**Q.** And the protein binding ([7]; 1.0 μg/mL, ultrafiltration)?
**A.** 87%

**Q.** And the “protein binding, Ultracentrifugation” value ([7]; Concentration 100 ng/mL)?
**A.** 73%

**Q.** And the “protein binding, Ultrafiltration” value ([7]; Concentration 100 ng/mL)?
**A.** 71%

**Q.** And the “protein binding, Ultracentrifugation” value ([7]; Concentration 1,000 ng/mL)?
**A.** 79%

**Q.** What about the “protein binding, Ultrafiltration” value ([7]; Concentration 1,000 ng/mL) of the same molecule?
**A.** 87%

**Q.** What about the “% R (resistance)” value ([6]; Asia/Pac, Eucast breakpoints) of the same molecule?
**A.** 1.1%

**Q.** And the MIC90 ([6]; Asia/Pac, N=189)?
**A.** 0.5 µg/mL (≈ 0.854 µM)

**Q.** What about the “% R (resistance)” value ([6]; Europe, Eucast breakpoints) of the same molecule?
**A.** 0.3%

**Q.** What about the MIC90 ([6]; Europe, N=361) of the same molecule?
**A.** 0.5 µg/mL (≈ 0.854 µM)

**Q.** And the “% R (resistance)” value ([6]; L. Amer, CLSI breakpoints)?
**A.** 0%

**Q.** What about the MIC90 ([6]; L. Amer, N=160) of the same molecule?
**A.** 0.5 µg/mL (≈ 0.854 µM)

**Q.** And the “% R (resistance)” value ([6]; N America, CLSI breakpoints)?
**A.** 0%

**Q.** What about the MIC90 ([6]; N America, N=671) of the same molecule?
**A.** 0.5 µg/mL (≈ 0.854 µM)
